Assay results published in patent US4448763A, “Alteration of gallium biodistribution using indium complexes for enhanced early imaging” (priority 1980, dated 1984).

Columns and labels:
[1] = Blood clearance of 67Ga (external blood loop), clearing agent given six hours after radiopharmaceutical; type: in vivo, male Sprague Dawley rats; parameters: % Increase in Blood Activity / Net Decrease in blood activity / % Decrease in Blood Activity: concentration or dose not given beside the values; details: for % Decrease in Blood Activity: 67Ga blood activity, clearing agent six hours after injection of radiopharmaceutical; for Net Decrease in blood activity / % Increase in Blood Activity / change in blood activity (in words): clearing agent six hours after radiopharmaceutical; for % Increase in Blood Activity: rise following the initial drop
[2] = Imaging of 67Ga distribution in non-tumored rats, clearing agent six hours post dosing; type: in vivo, male Sprague Dawley rats
Source text: Initial studies used non-tumored male Sprague Dawley rats weighing between 250 and 300 grams. […] In all imaging studies, the animals were anesthetized by intraperitoneal injection of urethane (1 gm/Kg), and the left external jugular vein cannulated as a dosing site. The animals were then positioned under the detection of the γ-camera (Union Carbide; CLEON 720 Large Field Gamma Camera coupled with a CLEON 110 Image Processor) and images were obtained periodically.

[3] = Blood clearance of 67Ga (external blood loop), clearing agent given two hours after radiopharmaceutical; type: in vivo, male Sprague Dawley rats
Procedure: Relative tissue concentrations are monitored by external imaging.
For blood clearance studies, male Sprague Dawley rats weighing 250-300 grams were used. The animals were anesthetized by peritoneal injection of an aqueous solution of urethan (1 gm/Kg). The right carotid artery and left jugular vein were exposed and an external blood loop (PE-50 tubing; volume.perspectiveto.0.14 ml) was inserted between the vessels. […] The right external jugular vein was then exposed and cannulated as an injection site. The animal was placed in a lead cradle and the blood loop inserted into the shielded well of a sodium iodide.thallium crystal. The animal received an injection of carrier-free gallium citrate (100-120 μCi) via the jugular cannula. […] Six hours post injection, the animal received a second injection containing one of the clearing agents (.perspectiveto.7.2 mmole/Kg). In subsequent experiments, clearing agents were administered two hours after or simultaneously with the radioactive dose.

5123C hepatoma [4] = assay: Imaging of 67Ga distribution in tumored rats, clearing agent two hours after radiopharmaceutical; type: in vivo, male Buffalo rats
Procedure: FIGS. 3A-3C are scans (Union Carbide Cleon model 720 large field gamma camera) of Buffalo rats bearing implanted 5123C hepatomas.
At this point, the rat on the left received carrier gallium citrate (3.3 mg/Kg) and the rat on the right received indium citrate (2.1 mg/Kg).
Initial studies used non-tumored male Sprague Dawley rats weighing between 250 and 300 grams. Subsequent studies in tumored rats used male Buffalo rats bearing a 5123C hepatoma (The tumor line was initiated from donor animals donated by Drs. R. L. Hayes and B. Byrd of the Oak Ridge Associated Universities). In all imaging studies, the animals were anesthetized by intraperitoneal injection of urethane (1 gm/Kg), and the left external jugular vein cannulated as a dosing site. The animals were then positioned under the detection of the γ-camera (Union Carbide; CLEON 720 Large Field Gamma Camera coupled with a CLEON 110 Image Processor) and images were obtained periodically.
When the clearing agent was given two hours post radiopharmaceutical dosing, there were significant changes in gallium-67 distribution (FIG. 3). […] The results from use of indium citrate were somewhat more dramatic in that the activity is greatly diminished throughout the soft tissue regions. […] The most significant distributional change, however, is the obvious increase in tumor activity. […] To test this hypothesis, indium citrate was given with gallium-67 citrate as a single solution. […] Twenty minutes after the mixed dose is given, there is little activity outside the kidneys, bladder, tumor and bone. After two hours, there is essentially no activity in the animal other than in the above mentioned regions.

[5] = relatively large doses; cited from earlier work
5123C hepatoma [6] = assay: Imaging of 67Ga distribution in tumored rats, clearing agent six hours after radiopharmaceutical
[7] = cited from earlier work
[8] = in vivo; cited from earlier work
[9] = versus gallium alone; cited from earlier work
[10] = cited from earlier work; remark: listed apart in the source
[11] = Blood activity-time curve of carrier-free gallium-67 citrate, no clearing agent; type: in vivo, normal Sprague Dawley rat; details: single i.v.
Source text: In this study, an external blood-loop technique (Int J of Appl Radiat Isot 29: 189-190, 1978) is used to monitor blood activity of the radiopharmaceutical as a function of time. Relative tissue concentrations are monitored by external imaging.
For blood clearance studies, male Sprague Dawley rats weighing 250-300 grams were used. The animals were anesthetized by peritoneal injection of an aqueous solution of urethan (1 gm/Kg). The right carotid artery and left jugular vein were exposed and an external blood loop (PE-50 tubing; volume.perspectiveto.0.14 ml) was inserted between the vessels. Blood was diverted from the artery, through the loop, and back to the animal via the vein (Int J of Appl Radiat Isot 29: 189-190, 1978). The right external jugular vein was then exposed and cannulated as an injection site. The animal was placed in a lead cradle and the blood loop inserted into the shielded well of a sodium iodide.thallium crystal. The animal received an injection of carrier-free gallium citrate (100-120 μCi) via the jugular cannula. Blood activity within the loop was continuously monitored as a function of time using a Packard Model 9012 Multi-channel Analyzer/Multi-scaler system (Packard Instrument Co., Downersville, Ill.). Six hours post injection, the animal received a second injection containing one of the clearing agents (.perspectiveto.7.2 mmole/Kg). […]

induced abscesses = details: rabbits bearing induced abscesses; cited from earlier work
[12] = clearing agent two hours after radiopharmaceutical
[13] = clearing agent two hours post radiopharmaceutical, gallium citrate 3 mg/Kg, […] 2.1 mg/Kg

CC(O)C(=O)[O][Al]([O]C(=O)C(C)O)[O]C(=O)C(C)O (centres unmarked) [Aluminum, aluminum lactate]
% Decrease in Blood Activity [1]: 9% | Net Decrease in blood activity [1]: 6% | % Increase in Blood Activity [1]: 3% | redistribution of radioactivity (imaging) [2]: no significant redistribution of the radioactivity

O=C([O-])CC(O)(CC(=O)[O-])C(=O)[O-].[Ga+3] [Gallium, gallium citrate]
blood activity cleared [3, 12]: 78% | subsequent rise in blood activity (in words) [3, 12]: characteristic rise in activity | net clearance of blood activity ([3]; two hours after radiopharmaceutical, gallium 3.3 mg/Kg): 70% | clearing of soft tissue / abdominal activity (imaging) (5123C hepatoma [4]; [13]): some clearing in the upper abdomen and in regions of the lower abdomen | tumor activity (imaging) (5123C hepatoma [4]; [13]): little loss of activity from the tumor region | activity bound within tumors (imaging, summary) (5123C hepatoma [4]; moderate doses of carrier gallium, […] two hours after radiopharmaceutical): obviously affected | % Decrease in Blood Activity [1]: 40% | % Decrease in Blood Activity ([1]; listed as non-radioactive gallium): approximately 40% | Net Decrease in blood activity [1]: 25% | change in blood activity (in words) [1]: decrease very rapidly | blood activity reduction vs no clearing agent ([1]; eight hours post radiopharmaceutical dosing, gallium 3.3 mg/Kg at six hours): approximately 25% | % Increase in Blood Activity [1]: 15% | effect on blood and tumor activity [5]: decrease blood activity without significantly reducing tumor activity | redistribution of radioactivity outside tumor (imaging) (5123C hepatoma [6]; gallium citrate 3 mg/Kg): less dramatic effect | loss of activity from the tumor (imaging) (5123C hepatoma [6]; gallium citrate 3 mg/Kg, compared with high dose): much less | redistribution of radioactivity outside tumor (imaging) (5123C hepatoma [6]; gallium citrate 15 mg/Kg): obvious redistributions of radioactivity | tumor activity (imaging) (5123C hepatoma [6]; gallium citrate 15 mg/Kg): tumor activity was observed to decrease | redistribution of radioactivity (imaging) [2]: shifted the radioactivity out of the blood/soft tissue regions and into the kidneys and the bladder

O=C([O-])CC(O)(CC(=O)[O-])C(=O)[O-].[Sc+3] [Scandium citrate]
tumor to blood and tumor to tissue ratios ([7]; gallium-67 and scandium citrates injected simultaneously): extremely high tumor to blood and tumor to tissue ratios | effect upon gallium binding in tumors ([7]; in vivo): little or no effect upon gallium binding in tumors | hemolytic anemia [8]: severe hemolytic anemia

CC(=O)[O-].CC(=O)[O-].CC(=O)[O-].[Tl+3] [Thallium, thallium triacetate]
% Decrease in Blood Activity [1]: 0% | Net Decrease in blood activity [1]: 0% | change in blood activity (in words) [1]: no change in blood activity | % Increase in Blood Activity [1]: 0% | redistribution of radioactivity (imaging) [2]: no significant redistribution of the radioactivity

CC(=O)N(O)CCCCCNC(=O)CCC(=O)N(O)CCCCCNC(=O)CCC(=O)N(O)CCCCCN [desferoxamine]
renal elimination rate of gallium desferoxamine complex [9]: rate greater than that observed for gallium alone

O=C([O-])CC(O)(CC(=O)[O-])C(=O)[O-].[67Ga+3] [gallium-67 citrate]
time of maximum gallium activity in tumors ([10]; after intravenous administration): eighteen | plasma / blood and soft tissue protein binding ([10]; given in very low doses): extensively bound | clearing from blood and soft tissue binding sites ([10]; in vivo): slow process | radiation dose ([10]; prolonged retention of 67Ga in the body): relatively high radiation dose | t1/2 of very rapid component of blood curve [11]: 12 s | time to completion of rapid distribution process ([11]; after dosing): four to six

iron dextran
clearing of gallium and abscess uptake (induced abscesses): clearing of gallium with enhanced abscess uptake of gallium
